Source: patent US9085463B2, “Water-soluble functionalized fullerenes” (Marelle, LLC, priority 2011, dated 2015)
One block for each compound: values may come before it.

Legend:
[1] = DPPH radical-scavenging method (anti-oxidant potential); assay type: biochemical; settings: for RD(.05 mg): amount of compound needed to deplete .05 mg of DPPH: calculated from slope; for Slope (anti-oxidant potential): mg DPPH remaining vs mg compound, linear regression, absorbance at 517 nm
Source text: The ability of a component to serve as an anti-oxidant is readily tested by a variety of methods known in the art. These analytical methods measure the radical-scavenging activity of anti-oxidants against free radicals, such as the 1,1-diphenyl-2-picrylhydrazyl (DPPH) radical. […] This absorbance disappears as the DPPH is consumed upon reduction by an antiradical compound. The disappearance of this so-called absorbance band can be followed by spectroscopic methods allowing quantitative measurements of the compound's anti-oxidant ability.
Stock solutions of 100 micromolar DPPH were prepared using 3.9 milligrams (mg) of DPPH dissolved in 100 milliliters (ml) of solution using spectroscopic grade methanol (MeOH). 3.5 ml of the DPPH solution was combined with 0.5 ml of test solutions of various concentrations of the anti-oxidant compounds. The commercial anti-oxidants, which are not water soluble, were dissolved in MeOH while their functionalized fullerene derivatives were dissolved in distilled water. The test mixture was immediately placed in a spectrometer which measured the absorbance of the mixture at 517 nm at various intervals over periods of 6 to 8 hours. Typically 4 or more samples of the anti-oxidants at various concentrations were tested. The concentrations, expressed in milligrams per milliliter (mg/ml), were selected so that some of the samples would consume more than 50% of the DPPH and others would not.
The percent of DPPH remaining at a given time interval was calculated using the following equation:
[formula] ACt is the absorbance value to the compound/DPPH solution at time t, ADPPHi is the initial value of the DPPH control blank at time t=0, and ADPPHt′ is the absorbance value of the control blank DPPH at time t=t′. The term (ADPPHt−ADPPHt′) in the above equation is the absorbance correction factor for DPPH radical decay as measured in the control blank.
The % DPPHram was recorded for each of the four concentrations at two different reaction times (30 minutes and 300 minutes). The % DPPHram was converted to milligrams (mg) of DPPH remaining and plotted as a function of milligrams (mg) of compound for each of the two reaction times. Linear regressions were calculated for each of the data sets according to the following formula: CDPPH=mt·Cc+CDPPHo
CDPPH is the mass of DPPH remaining at time t=30 minutes and time t=300 minutes, Co is the mass of the compound in the cuvette, CDPPHo is the initial concentration of the DPPH in the cuvette, and mt is the slope determined by the linear regression. The slope was used as a parameter to estimate the anti-oxidant potential of the compound. […] FIGS. 30-34 illustrate the slope (anti-oxidant potential) of commercial anti-oxidants and their functionalized fullerenol derivatives (indicated with FF in the legends).
The slope for each compound was tabulated and the amount (mg) of compound needed to deplete 0.05 mg of DPPH was calculated (see Table 1).

[2] = UV absorbing ability (UV/Vis absorbance of solutions); assay type: physicochemical; settings: 0.5 mg/ml, avobenzone in acetone, functionalized fullerene in distilled water
Description: The ability of a component to absorb UV light is readily tested using spectroscopic instruments, such as a UV/Vis spectrophotometer.
5.0 milligrams (mg) of avobenzone, a UV light absorbing substance widely used in sunscreens, was dissolved in 10 milliliters (ml) of reagent grade acetone. […] UV absorbance (A) of the resulting solutions was measured at 290 nm, 320 nm, and 400 nm.

Compound: COC1=C(OC)C(=O)C(C/C=C(\C)CC/C=C(\C)CC/C=C(\C)CC/C=C(\C)CC/C=C(\C)CC/C=C(\C)CC/C=C(\C)CC/C=C(\C)CC/C=C(\C)CCC=C(C)C)=C(C)C1=O [Coenzyme Q10, coenzyme Q10, reference compound]
RD(.05 mg): amount of compound needed to deplete .05 mg of DPPH ([1]; 30 minutes reaction time): 125.00 mg
Slope (anti-oxidant potential) ([1]; 30 minutes reaction time): -0.0004 mg/mg
RD(.05 mg): amount of compound needed to deplete .05 mg of DPPH ([1]; 300 minutes reaction time): 23.81 mg
Slope (anti-oxidant potential) ([1]; 300 minutes reaction time): -0.0021 mg/mg

Compound: CCCCC/C=C\C/C=C\CCCCCCCC(=O)O [Linoleic Acid, linoleic acid, reference compound]
RD(.05 mg): amount of compound needed to deplete .05 mg of DPPH ([1]; 30 minutes reaction time): 6250.00 mg
Slope (anti-oxidant potential) ([1]; 30 minutes reaction time): -0.000008 mg/mg
RD(.05 mg): amount of compound needed to deplete .05 mg of DPPH ([1]; 300 minutes reaction time): 100.00 mg
Slope (anti-oxidant potential) ([1]; 300 minutes reaction time): -0.0005 mg/mg

Compound: CC/C=C\C/C=C\C/C=C\CCCCCCCC(=O)O [Linolenic Acid, α-linolenic acid, reference compound]
RD(.05 mg): amount of compound needed to deplete .05 mg of DPPH ([1]; 30 minutes reaction time): 250.00 mg
Slope (anti-oxidant potential) ([1]; 30 minutes reaction time): -0.0002 mg/mg
RD(.05 mg): amount of compound needed to deplete .05 mg of DPPH ([1]; 300 minutes reaction time): 45.45 mg
Slope (anti-oxidant potential) ([1]; 300 minutes reaction time): -0.0011 mg/mg

Absorbance (A) 290 nm ([2]; 290 nm): 0.297
Absorbance (A) 320 nm ([2]; 320 nm): 0.521
Absorbance (A) 400 nm ([2]; 400 nm): 0.376
Compound: COc1ccc(C(=O)CC(=O)c2ccc(C(C)(C)C)cc2)cc1 [Avobenzone, avobenzone]

Compound: CCCCC/C=C\C/C=C\C/C=C\C/C=C\CCCC(=O)O [Arachidonic Acid, arachidonic acid, reference compound]
RD(.05 mg): amount of compound needed to deplete .05 mg of DPPH ([1]; 30 minutes reaction time): 250.00 mg
Slope (anti-oxidant potential) ([1]; 30 minutes reaction time): -0.0002 mg/mg
RD(.05 mg): amount of compound needed to deplete .05 mg of DPPH ([1]; 300 minutes reaction time): 45.45 mg
Slope (anti-oxidant potential) ([1]; 300 minutes reaction time): -0.0011 mg/mg
